Measured values reported in US7229999B2, “Pyridine-3-carboxamide derivatives as CB1 inverse agonists” (Hoffmann-La Roche Inc., priority 2005, dated 2007).
Where two headings read alike, the source gives them in different places.

What was measured:
[1] = molecular target: T1, human cannabis CB1 receptor (Homo sapiens, UniProt P21554); test: Affinity for cannabinoid CB1 receptors, [3H]-CP-55,940 radioligand binding on HEK cell membranes
T1 construct: expressed in transfected cells; host or cells: human embryonic kidney (HEK) cells, transient, Semliki Forest Virus system
Protocol: The affinity of the compounds of the invention for cannabinoid CB1 receptors was determined using membrane preparations of human embryonic kidney (HEK) cells in which the human cannabis CB1 receptor is transiently transfected using the Semliki Forest Virus system in conjunction with [3H]-CP-55,940 as radioligand. After incubation of a freshly prepared cell membrane preparation with the [3H]-ligand, with or without addition of compounds of the invention, separation of bound and free ligand was performed by filtration over glassfiber filters. Radioactivity on the filter was measured by liquid scintillation counting.

[2] = doses of 10 and 20 mg daily; cited from earlier work

T1 sequence (P21554 whole entry): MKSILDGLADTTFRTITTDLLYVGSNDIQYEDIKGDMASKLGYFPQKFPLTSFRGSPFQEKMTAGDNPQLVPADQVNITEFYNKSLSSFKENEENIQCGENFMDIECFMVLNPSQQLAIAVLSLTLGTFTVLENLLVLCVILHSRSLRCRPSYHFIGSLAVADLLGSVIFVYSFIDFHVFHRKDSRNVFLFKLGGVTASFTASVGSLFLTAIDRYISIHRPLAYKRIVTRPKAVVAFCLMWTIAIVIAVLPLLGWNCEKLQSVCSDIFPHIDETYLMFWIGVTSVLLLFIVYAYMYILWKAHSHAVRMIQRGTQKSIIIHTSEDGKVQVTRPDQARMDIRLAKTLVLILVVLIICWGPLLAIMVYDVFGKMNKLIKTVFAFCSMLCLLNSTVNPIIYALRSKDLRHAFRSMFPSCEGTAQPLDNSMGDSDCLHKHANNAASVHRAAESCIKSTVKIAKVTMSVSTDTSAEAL

CCCCOc1ncc(C(=O)N[C@@H]2CCCC[C@H]2O)cc1-c1cc(C(F)(F)F)ccc1F [Example 2, 6-Butoxy-5-(2-fluoro-5-trifluoromethyl-phenyl)-N-((1R,2R)-2-hydroxy-cyclohexyl)-nicotinamide]
IC50 ([1]; affinity for the CB1 receptor, read-out: IC50): 186 nM
melting point: 172 to 178 °C

CCCCOc1ncc(C(=O)N[C@@H]2CCCC[C@H]2O)cc1-c1ccc(Cl)cc1 [Example 3, 6-Butoxy-5-(4-chloro-phenyl)-N-((1R,2R)-2-hydroxy-cyclohexyl)-nicotinamide]
IC50 [1]: 39 nM

O=C(N[C@@H]1CCCC[C@H]1O)c1cnc(OCC2CC2)c(-c2cc(C(F)(F)F)ccc2F)c1 [Example 7, 6-Cyclopropylmethoxy-5-(2-fluoro-5-trifluoromethyl-phenyl)-N-((1R,2R)-2-hydroxy-cyclohexyl)-nicotinamide]
IC50 [1]: 102 nM

Cc1c(C(=O)NN2CCCCC2)nn(-c2ccc(Cl)cc2Cl)c1-c1ccc(Cl)cc1 [SR 141716]
body weight compared to placebo [2]: significantly reduced body weight
